Laboratory results: ChEMBL document CHEMBL1201862, “PubChem BioAssay data set” (2004)
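Results reflect a 48-hour exposure of cells in 96-well plates to compound at five concentrations. GI50 = concentration required for 50% inhibition of growth.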 Active and inactive are the calls of the source. No stated cut-off is given here; in the data, active = GI50 up to about 1.1 µM and inactive = higher. Where a SMILES comes first, the peptide text is derived from it. [ ]: non-standard residue; d: D form. The star is where a group is joined. ξ: configuration not given here. ξD = NC(CC(=O)O)C(=O)O; Boc = CC(C)(C)OC(=O)*; Aib = CC(C)(N)C(=O)O; OtBu = CC(C)(C)O*

Legend:
Experiment in all cases: DTP human tumour cell line panel, 48 h
[1] = system: SF-295
[2] = system: U-251
[3] = system: NCI-H522
[4] = system: NCI-H460
[5] = system: PC-3
[6] = system: HL-60
[7] = system: NCI/ADR-RES
[8] = system: MDA-MB-231
[9] = system: HOP-92
[10] = system: SK-MEL-28
[11] = system: SF-268
[12] = system: COLO 205
[13] = system: Hs-578T
[14] = system: SNB-19
[15] = system: HCT-15
[16] = system: CCRF-CEM
[17] = system: RXF 393
[18] = system: SF-539
[19] = system: HCC 2998
[20] = system: MCF7

Row | Compound | GI50 [1] | GI50 [2] | GI50 [3] | GI50 [4] | GI50 [5] | GI50 [6] | GI50 [7] | GI50 [8] | GI50 [9] | GI50 [10] | GI50 [11] | GI50 [12] | GI50 [13] | GI50 [14] | GI50 [15] [µM] | GI50 [16] | GI50 [17] | GI50 [18] | GI50 [19] | GI50 [20]
1 | c1nc(NCCc2c[nH]cn2)c2nc[nH]c2n1 | > 100 µM (inactive) | > 100 µM (inactive) | > 100 µM (inactive) | > 100 µM (inactive) | > 100 µM (inactive) | 26.7 µM (inactive) | > 100 µM (inactive) | > 100 µM (inactive) | > 100 µM (inactive) | > 100 µM (inactive) | > 100 µM (inactive) | > 100 µM (inactive) | > 100 µM (inactive) | > 100 µM (inactive) | > 100 | > 100 µM (inactive) | > 100 µM (inactive) | > 100 µM (inactive) |  | 
2 | CS(=O)(=O)c1ccc(NNc2cc(=O)[nH]c(=O)[nH]2)cc1 | > 100 µM (inactive) | > 100 µM (inactive) | 21.7 µM (inactive) | > 100 µM (inactive) | > 100 µM (inactive) | 52.7 µM (inactive) | > 100 µM (inactive) | > 100 µM (inactive) | 47.8 µM (inactive) | > 100 µM (inactive) | > 100 µM (inactive) | > 100 µM (inactive) | > 100 µM (inactive) | > 100 µM (inactive) | > 100 | > 100 µM (inactive) | > 100 µM (inactive) | > 100 µM (inactive) | > 100 µM (inactive) | 
3 | CSC1=N[C@H](c2ccccc2)CS1 | > 100 µM (inactive) | > 100 µM (inactive) |  | > 100 µM (inactive) | > 100 µM (inactive) |  | > 100 µM (inactive) |  |  | > 100 µM (inactive) |  | > 100 µM (inactive) | > 100 µM (inactive) | > 100 µM (inactive) | > 100 | > 100 µM (inactive) |  | > 100 µM (inactive) | > 100 µM (inactive) | > 100 µM (inactive)
4 | CCOC(=O)c1c(-c2ccccc2)nc2ccccc2c1O | > 100 µM (inactive) | > 100 µM (inactive) |  | > 100 µM (inactive) | > 100 µM (inactive) | > 100 µM (inactive) | > 100 µM (inactive) |  | > 100 µM (inactive) | > 100 µM (inactive) | > 100 µM (inactive) | > 100 µM (inactive) | > 100 µM (inactive) | > 100 µM (inactive) | > 100 | > 10 µM (inactive) | > 100 µM (inactive) |  | > 100 µM (inactive) | > 100 µM (inactive)
5 | O=[N+]([O-])c1cccc(/N=N/c2c(O)ccc3ccccc23)c1 | 31 µM (inactive) | 19.6 µM (inactive) | 45.1 µM (inactive) |  | 55 µM (inactive) |  | 70 µM (inactive) | 56.4 µM (inactive) | 48.1 µM (inactive) | 90.4 µM (inactive) | 51.4 µM (inactive) | > 100 µM (inactive) | 49.5 µM (inactive) | 25.4 µM (inactive) | 44.6 | 16.2 µM (inactive) | 91.2 µM (inactive) |  |  | 
6 | COC(=O)C(C)(C)NC(=O)C(C)(C)NC(=O)C(CC(=O)OC(C)(C)C)NC(=O)OC(C)(C)C (stereo unspecified) (Boc-[ξD](OtBu)-[Aib]-[Aib]-OMe) | > 100 µM (inactive) | > 100 µM (inactive) | > 100 µM (inactive) | > 100 µM (inactive) | > 100 µM (inactive) |  | > 100 µM (inactive) | > 100 µM (inactive) | > 100 µM (inactive) | > 100 µM (inactive) | 3.71 µM (inactive) | > 100 µM (inactive) | > 100 µM (inactive) | > 100 µM (inactive) | > 100 | > 100 µM (inactive) | > 100 µM (inactive) | > 100 µM (inactive) |  | > 100 µM (inactive)
